From PubChem BioAssay AID2202554 (NIEHS Division of Translational Toxicology (DTT)) come the findings set out here.

Inconclusive results are not listed. Activity calls are given as the source filed them. The rule behind the calls is not given here. Residues, ends and D or L forms follow the SMILES beside them.

This series deals with S. typhimurium/E. coli reverse mutation, colony counts. The series can be described thus: Bacterial reverse mutation test (aka Ames test) summary data. In a few lines:
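S. typhimurium his⁻ strains (TA97–TA1538) and E. coli WP2 uvrA pKM101 trp⁻, dosed over a range with or without rat, hamster or mouse liver S9. Preincubated 20 min at 37° C (or plate incorporation), plated in agar, incubated usually two days. Revertant colonies counted against negative controls.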

In the case of `CC[C@H]1OC(=O)[C@H](C)[C@@H](O[C@H]2C[C@@](C)(OC)[C@@H](O)[C@H](C)O2)[C@H](C)[C@@H](O[C@@H]2O[C@H](C)C[C@H](N(C)C)[C@H]2O)[C@](C)(OC)C[C@@H](C)C(=O)[C@H](C)[C@@H](O)[C@]1(C)O`, the outcome is “inactive; negative”.

`Nc1ccc(N)c2c1C(=O)c1c(N)ccc(N)c1C2=O`: the outcome is “active; positive”.

With `O=c1c2ccccc2c(=O)c2c1ccc1c2[nH]c2c3c(=O)c4ccccc4c(=O)c3c3[nH]c4c(ccc5c(=O)c6ccccc6c(=O)c54)c3c12`, the outcome is “inactive; negative”.

Regarding `CC(=O)O`, the outcome was “inactive; negative”.

Take `N[C@@H](Cc1c[nH]c2ccc(O)cc12)C(=O)O`: the outcome is “inactive; negative”.

With `CCOP(=S)(OCC)OP(=S)(OCC)OCC`, the outcome is “active; positive”.

Regarding `Cc1ccccc1C`, the outcome is “inactive; negative”.

With `COc1ccc(C(=O)/C(Br)=C\C(=O)O)cc1`, the outcome is “active; positive”.

On to `CCBr`, for which the outcome is “active; positive”.

As to `CC(=O)c1ccc(S(=O)(=O)NC(=O)NC2CCCCC2)cc1`, the outcome was “inactive; negative”.

As to `Nc1ccccc1[N+](=O)[O-]`, the outcome is “inactive; negative”.

Regarding `C=CC(=O)OCC(CO)(COCC(COC(=O)C=C)(COC(=O)C=C)COC(=O)C=C)COC(=O)C=C`, the outcome is “inactive; negative”.

In the case of `CC(C)CCON=O`, the outcome was “active; positive”.

Consider `O=P(OC(CCl)CCl)(OC(CCl)CCl)OC(CCl)CCl`, for which the outcome was “active; positive”.

For `Clc1ccccn1`, the outcome was “active; positive”.

As for `CCN(CC)CCNc1ccc(CO)c2sc3ccccc3c(=O)c12`, the outcome is “active; positive”.

As for `Clc1c(Cl)c(Cl)c2c(Cl)c(Cl)c(Cl)c(Cl)c2c1Cl`, the outcome was “inactive; negative”.

As for `OCC(CO)(CCBr)CCBr`, the outcome is “active; positive”.

For the compound `NC(=S)NNC(N)=S`, the outcome was “inactive; negative”.

As for `CCCCC(=O)OCC`, the outcome is “inactive; negative”.

With `CC=NO`, the outcome was “active; positive”.

As to `NCCNCCNCCNCCN`, the outcome is “active; positive”.

`COc1cc(CNC(=O)CCCC/C=C/C(C)C)ccc1O`: the outcome was “inactive; negative”.

In the case of `c1ccc2cc3ccccc3cc2c1`, the outcome is “active; weakly positive”.

As to `O=c1ccc2ccccc2o1`, the outcome was “active; positive”.

For the compound `CCCCCCCC/C=C\CCCCCCCC(=O)N(CCO)CCO`, the outcome was “inactive; negative”.

`Cc1cc(-c2ccc(N=Nc3c(S(=O)(=O)O)cc4cc(S(=O)(=O)O)cc(N)c4c3O)c(C)c2)ccc1N=Nc1c(S(=O)(=O)O)cc2cc(S(=O)(=O)O)cc(N)c2c1O`: the outcome was “active; positive”.

For the compound `Nc1ccc(S(=O)(=O)c2ccc(N)cc2)cc1`, the outcome is “inactive; negative”.

`c1ccc2sc(SSc3nc4ccccc4s3)nc2c1`: the outcome was “active; positive”.

Consider `C(=C\c1ccccc1)/c1ccccc1`, for which the outcome was “inactive; negative”.

For `CON`, the outcome is “inactive; negative”.

`CNNCc1ccc(C(=O)NC(C)C)cc1`: the outcome is “inactive; negative”.

On to `OC[C@@]1(O)CO[C@](O)(CO)CO1`, for which the outcome is “active; positive”.

In the case of `CCCCOCC1CO1` (stereo not drawn), the outcome was “active; positive”.

For the compound `Nc1ncn([C@@H]2O[C@H](CO)[C@@H](O)[C@H]2O)c(=O)n1`, the outcome is “active; positive”.

Consider `O=Cc1ccc(Cl)cc1`, for which the outcome is “inactive; negative”.

For `O=C1c2ccccc2C(=O)c2ccccc21`, the outcome was “active; positive”.

`C=C(F)F`: the outcome was “active; positive”.

Take `[CH3][Pb]([CH3])([CH3])[CH3]`: the outcome is “inactive; negative”.

Take `OCCCBr`: the outcome was “active; positive”.

`CCCCOCCOP(=O)(OCCOCCCC)OCCOCCCC`: the outcome was “inactive; negative”.

Consider `c1ccc2occc2c1`, for which the outcome is “inactive; negative”.

As to `COC(=O)Nc1nc2ccccc2[nH]1`, the outcome is “active; positive”.

On to `CCCCC(CC)COC(=O)c1cccc(C(=O)OCC(CC)CCCC)c1` (stereo not drawn), for which the outcome is “inactive; negative”.

Turning to `CC(=O)CC(C)C`, the outcome was “inactive; negative”.

Turning to `CC[n+]1c(-c2ccccc2)c2cc(N)ccc2c2ccc(N)cc21`, the outcome was “active; positive”.

For the compound `CCNC(=O)Nc1ncc([N+](=O)[O-])s1`, the outcome is “active; positive”.

For `COc1cc(-c2ccc(N)c(OC)c2)ccc1N`, the outcome was “active; positive”.

With `Nc1ccc(Cl)cc1[N+](=O)[O-]`, the outcome was “active; positive”.

As for `OCC=CCO`, the outcome is “active; positive”.

For the compound `ClC(Cl)=C(Cl)C(Cl)=C(Cl)Cl`, the outcome is “inactive; negative”.

On to `O=C1C=CC(=O)C=C1`, for which the outcome is “inactive; negative”.

On to `C=CCCCCCC`, for which the outcome was “inactive; negative”.

In the case of `CCCCCCOc1ccc(O)cc1`, the outcome was “inactive; negative”.

`CCCCCCCCCCCCCCCCCC[N+](C)(C)Cc1ccccc1`: the outcome is “inactive; negative”.

Turning to `CCC(C)=NO`, the outcome is “active; positive”.

For the compound `BrC/C=C/CBr`, the outcome is “active; positive”.

`CC(C)CC(C)N` (stereo not drawn): the outcome is “inactive; negative”.

Regarding `ClC(Cl)C(Cl)Cl`, the outcome was “inactive; negative”.

With `COC(=O)[C@H](Cc1ccccc1)NC(=O)[C@@H](N)CC(=O)O` (H-Asp-Phe-OMe), the outcome was “inactive; negative”.

Turning to `CCCN(CCC)S(=O)(=O)c1ccc(C(=O)O)cc1`, the outcome was “inactive; negative”.

As to `CC(C=O)=Cc1ccccc1`, the outcome was “inactive; negative”.

Consider `O=[N+]([O-])c1cc([As](=O)(O)O)ccc1O`, for which the outcome is “inactive; negative”.

`Brc1c(Br)c(Br)c(Oc2c(Br)c(Br)c(Br)c(Br)c2Br)c(Br)c1Br`: the outcome is “inactive; negative”.

Regarding `O=C(O)CSCC(=O)O`, the outcome was “inactive; negative”.

Turning to `O=C(O)C(Br)(Br)Br`, the outcome was “active; positive”.

With `CC(C)OCC1CO1` (stereo not drawn), the outcome is “active; positive”.

For `CC(C)CN`, the outcome was “inactive; negative”.

In the case of `OCC(Br)CBr` (stereo not drawn), the outcome is “active; positive”.

Take `O=P(O)(O)Oc1c[nH]c2ccccc12`: the outcome was “active; positive”.

`O=C(O)CBr`: the outcome was “active; positive”.

Consider `O=C=Nc1ccc(Cc2ccc(N=C=O)cc2)cc1`, for which the outcome is “inactive; negative”.

Regarding `CCCCCCCCOC(=O)c1ccccc1C(=O)OCCCCCCCC`, the outcome was “inactive; negative”.

Consider `O=[N+]([O-])c1ccc(Nc2ccc(O)cc2)c([N+](=O)[O-])c1`, for which the outcome is “active; positive”.

Consider `Oc1c(I)cc(Cl)c2cccnc12`, for which the outcome was “inactive; negative”.

In the case of `CCN(C=O)CC`, the outcome is “inactive; negative”.

With `CN(C)c1ccc(C(=O)c2ccc(N(C)C)cc2)cc1`, the outcome is “active; positive”.

Consider `CCC1(c2ccccc2)C(=O)NC(=O)NC1=O`, for which the outcome is “active; weakly positive”.
